Test results: patent US4243674A, “9-Hydroxydibenzo[b,d]pyrans and intermediates therefore” (priority 1978, dated 1981)

Legend:
hashish activity = details: Bergel et al. 1943, cited from earlier work
hot plate = assay: Mouse hot plate analgesic testing (HP); type: in vivo, mice; details: Mus musculus; hot plate, mice
Method: (§1) Tests Using Thermal Nociceptive Stimuli
(a) Mouse Hot Plate Analgesic Testing
The method used is modified after Woolfe and MacDonald, J. Pharmacol. Exp. Ther., 80, 300-307 (1944). A controlled heat stimulus is applied to the feet of mice on a 1/8" thick aluminum plate. A 250 watt reflector infrared heat lamp is placed under the bottom of the aluminum plate. A thermal regulator, connected to thermistors on the plate surface, programs the heat lamp to maintain a constant temperature of 57° C. Each mouse is dropped into a glass cylinder (61/2" diameter) resting on the hot plate, and timing is begun when the animal's feet tough the plate. The mouse is observed at 0.5 and 2 hours after treatment when the test compound for the first "flicking"movements of one or both hind feet, or until 10 seconds elapse without such movements. Morphine has an MPE50 =4-5.6 mg./kg. (s.c.).
(§2) Results of the above tests are recorded as percent maximum possible effect (% MPE). The % MPE of each group is statistically compared to the % MPE of the standard and the predrug control values. The % MPE is calculated as follows: [formula]
(§3) By means of the above procedures, the analgesic activity of several compounds of this invention and of certain prior art compounds are determined. The data are reported in terms of maximum possible effect.
(§4) PBQ=phenylbenzoquinone-induced writhing; TF=tail flick; HP=hot plate; RTC=rat tail clamp; FJ=flinch jump; and TI=tail immersion assays.

flinch jump = assay: Flinch-jump test (FJ); type: in vivo, male albino rats, Charles River (Sprague-Dawley) CD strain; details: Rattus norvegicus, rats, 2 hours, read-out: ANALGESIC ACTIVITY ED50, FJ 2 hours
Description: Tests Using Electrical Nociceptive Stimuli
A modification of the flinch-jump procedure of Tenen, Psychopharmacologia, 12, 278-285 (1968) is used for determining pain thresholds. Male albino rats (175-200 g.) of the Charles River (Sprague-Dawley) CD strain are used. Prior to receiving the drug, the feet of each rat are dipped into a 20% glycerol/saline solution. The animals are then placed in a chamber and presented with a series of 1-second shocks to the feet which are delivered in increasing intensity at 30-second intervals. These intensities are 0.26, 0.39, 0.52, 0.78, 1.05, 1.31, 1.58, 1.86, 2.13, 2.42, 2.72 and 3.04 mA. Each animal's behavior is rated for the presence of (a) flinch, (b) squeak and (c) jump or rapid forward movement at shock onset. Single upward series of shock intensities are presented to each rat just prior to, and at 0.5, 2, 4 and 24 hours subsequent to drug treatment.
as §2, §3, §4

tail immersion = assay: Tail immersion procedure (TI); type: in vivo, male albino mice, Charles River CD-1 strain; details: Mus musculus, 0.5 h; tail immersion, mice, 1/2 hour; read-out: ANALGESIC ACTIVITY ED50, TI 1/2 hour
Method: (c) Tail Immersion Procedure
The method is a modification of the receptacle procedure developed by Benbasset, et al., Arch. int. Pharmacodyn., 122, 434 (1959). Male albino mice (19-21 g.) of the Charles River CD-1 strain are weighed and marked for identification. Five animals are normally used in each drug treatment group with each animal serving as its own control. For general screening purposes, new test agents are first administered at a dose of 56 mg./kg. intraperitoneally or subcutaneously, delivered in a volume of 10 ml./kg. Preceding drug treatment and at 0.5 and 2 hours post drug, each animal is placed in the cylinder. Each cylinder is provided with holes to allow for adequate ventilation and is closed by a round nylon plug through which the animal's tail protrudes. The cylinder is held in an upright position and the tail is completely immersed in the constant temperature waterbath (56° C.). The endpoint for each trial is an energetic jerk or twitch of the tail coupled with a motor response. In some cases, the endpoint may be less vigorous post drug. To prevent undue tissue damage, the trial is terminated and the tail removed from the waterbath within 10 seconds. The response latency is recorded in seconds to the nearest 0.5 second. A vehicle control and a standard of known potency are tested concurrently with screening candidates. If the activity of a test agent has not returned to baseline values at the 2-hour testing point, response latencies are determined at 4 and 6 hours. A final measurement is made at 24 hours if activity is still observed at the end of the test day.
as §2, §3, §4

tail flick = assay: Mouse tail flick analgesic testing (TF); type: in vivo, mice; details: Mus musculus; tail flick, mice
Description: as §1
(b) Mouse Tail Flick Analgesic Testing
Tail flick testing in mice is modified after D'Amour and Smith, J. Pharmacol. Exp. Ther., 72, 74-79 (1941), using controlled high intensity heat applied to the tail. Each mouse is placed in a snug-fitting metal cylinder, with the tail protruding through one end. This cylinder is arranged so that the tail lies flat over a concealed heat lamp. At the onset of testing, an aluminum flag over the lamp is drawn back allowing the light beam to pass through the slit and focus onto the end of the tail. A timer is simultaneously activated. The latency of a sudden flick of the tail is ascertained. Untreated mice usually react within 3-4 seconds after exposure to the lamp. The end point for protection is 10 seconds. Each mouse is tested at 0.5 and 2 hours after treatment with morphine and the test compound. Morphine has an MPE50 of 3.2-5.6 mg./kg. (s.c.).
as §2, §3, §4

[1] = system: phenylbenzoquinone-induced writhing; assay: Suppression of phenylbenzoquinone irritant-induced writhing (PBQ); type: in vivo, Carworth Farms CF-1 mice; details: Mus musculus, mice, read-out: ANALGESIC ACTIVITY ED50, PBQ
Method: Test Using Chemical Nociceptive Stimuli
Suppression of Phenylbenzoquinone Irritant-Induced Writhing
Groups of 5 Carworth Farms CF-1 mice are pretreated subcutaneously or orally with saline, morphine, codeine or the test compound. Twenty minutes (if treated subcutaneously) or fifty minutes (if treated orally) later, each group is treated with intraperitoneal injection of phenylbenzoquinone, an irritant known to produce abdominal contractions. The mice are observed for 5 minutes for the presence or absence of writhing starting 5 minutes after the injection of the irritant. MPE50 's of the drug pretreatments in blocking writhing are ascertained.
as §2, §3, §4

rat tail clamp = assay: Haffner tail pinch procedure / rat tail clamp (RTC); type: in vivo, male albino rats, Charles River (Sprague-Dawley) CD strain; details: 1 hour, read-out: ANALGESIC ACTIVITY ED50, RTC 1 hour
Method: Tests Using Pressure Nociceptive Stimuli
Effect on the Haffner Tail Pinch Procedure
A modification of the procedure of Haffner, Experimentelle Prufung Schmerzstillender. Mittel Deutch Med. Wschr., 55, 731-732 (1929) is used to ascertain the effects of the test compound on aggressive attacking responses elicited by a stimulus pinching the tail. Male albino rats (50-60 b.) of the Charles River (Sprague-Dawley) CD strain are used. Prior to drug treatment, and again at 0.5, 1, 2 and 3 hours after treatment, a Johns Hopkins 2.5-inch "bulldog" clamp is clamped onto the root of the rat's tail. The endpoint at each trial is clear attacking and biting behavior directed toward the offending stimulus, with the latency for attack recorded in seconds. The clamp is removed in 30 seconds if attacking has not yet occurred, and the latency of response is recorded as 30 seconds. Morphine is active at 17.8 mg./kg. (i.p.).
as §2, §3, §4

[2] = system: central nervous system activity; details: Loev et al. 1973; cited from earlier work

Compound: CCCCCOc1cc(O)c2c(c1)OC(C)(C)C1=C2CC(C)CC1 (stereo not shown) [pentoxy]
- biological activity on replacing the 3-pentyl group by alkoxy (hashish activity): biological inactivity

Compound: CCCCCCCCOc1cc(O)c2c(c1)OC(C)(C)C1=C2CC(C)CC1 (stereo not shown) [octoxy]
- biological activity on replacing the 3-pentyl group by alkoxy (hashish activity): biological inactivity

Compound: CC(CCCc1ccccc1)Oc1cc(O)c2c(c1)OC(C)(C)[C@@H]1CC[C@@H](O)C[C@@H]21 (relative stereo) [OCH(CH3)(CH2)3C6 H5, dl-6aβ,7,8,9,10,10aα-hexahydro-1-hydroxy-6,6-dimethyl-3-(1-methyl-4-phenylbutoxy)-6H-dibenzo[b,d]pyran-9β-ol]
- ED50 (hot plate): 0.76 mg/kg
- ED50 (flinch jump): 0.44 mg/kg
- ED50 (tail immersion): 0.4 mg/kg
- ED50 (tail flick): 0.33 mg/kg
- ED50 [1]: 0.11 mg/kg
- ED50 (rat tail clamp): 1.9 mg/kg

Compound: CCCCCCOc1cc(O)c2c(c1)OC(C)(C)C1=C2CC(C)CC1 (stereo not shown) [hexoxy]
- biological activity on replacing the 3-pentyl group by alkoxy (hashish activity): biological inactivity
- hashish activity (hashish activity; at 10 to 20 mg./kg.): feeble hashish activity

Compound: CCCCCC(C)Oc1cc(O)c2c(c1)OC(C)(C)C1=C2CC(C)CC1 (stereo not shown) [--OCH(CH3)C5 H11]
- less active in central nervous system activity than the corresponding compound with the alkyl side chain directly attached [2]: 50%
- times as active as the compound in which oxygen is replaced by methylene [2]: 5 times

Compound: CCCCOc1cc(O)c2c(c1)OC(C)(C)C1=C2CC(C)CC1 (stereo not shown) [butoxy]
- biological activity on replacing the 3-pentyl group by alkoxy (hashish activity): biological inactivity
